{
  "source": "paper PMC5218480",
  "about": "(PLoS ONE, 2017)",
  "tested_on": "MV-4-11 cells",
  "assay": "Gene expression microarray analysis (Affymetrix PrimeView) and GSEA",
  "format": "cell-based, human",
  "set-up": "RFU PODN (11730768_x_at) / Fold change /veh PODN (11730768_x_at) / RFU LINC00158 (11744669_a_at) / Fold change /veh LINC00158 (11744669_a_at) / RFU DUSP10 (11751237_a_at) / Fold change /veh DUSP10 (11751237_a_at) / RFU ID3 (11757404_x_at) / Fold change /veh ID3 (11757404_x_at) / RFU PLEKHG5 (11737974_s_at) / Fold change /veh PLEKHG5 (11737974_s_at) / RFU LRRC4B (11730491_at) / Fold change /veh LRRC4B (11730491_at) / RFU GIMAP4 (11747438_a_at) / Fold change /veh GIMAP4 (11747438_a_at) / RFU KRT8 (11758183_x_at) / Fold change /veh KRT8 (11758183_x_at) / RFU CNN1 (11734310_a_at) / Fold change /veh CNN1 (11734310_a_at) / RFU VPS37D (11726825_at) / Fold change /veh VPS37D (11726825_at) / RFU C10orf10 (11716522_x_at) / Fold change /veh C10orf10 (11716522_x_at) / RFU KIR2DL2 /// KIR2DL4 /// KIR2DL5A /// KIR2DL5B /// KIR2DS1 /// KIR2DS2 /// KIR2DS3 /// KIR2DS4 /// KIR3DL3 /// KIR3DL3 /// KIR3DS1 (11738374_at) / Fold change /veh KIR2DL2 /// KIR2DL4 /// KIR2DL5A /// KIR2DL5B /// KIR2DS1 /// KIR2DS2 /// KIR2DS3 /// KIR2DS4 /// KIR3DL3 /// KIR3DL3 /// KIR3DS1 (11738374_at) / RFU C1QL1 (11718748_at) / Fold change /veh C1QL1 (11718748_at) / RFU TMPRSS4 (11747572_a_at) / Fold change /veh TMPRSS4 (11747572_a_at) / RFU HAMP (11756126_x_at) / Fold change /veh HAMP (11756126_x_at) / RFU RNFT2 (11725882_a_at) / Fold change /veh RNFT2 (11725882_a_at) / RFU NR4A2 (11747474_a_at) / Fold change /veh NR4A2 (11747474_a_at) / RFU ABCC12 (11746883_a_at) / Fold change /veh ABCC12 (11746883_a_at) / RFU TMEM136 (11760407_x_at) / Fold change /veh TMEM136 (11760407_x_at) / RFU CLDN22 /// WWC2 (11732394_at) / Fold change /veh CLDN22 /// WWC2 (11732394_at) / RFU HLA-DPB1 (11760878_x_at) / Fold change /veh HLA-DPB1 (11760878_x_at) / RFU SPINT1 (11716480_a_at) / Fold change /veh SPINT1 (11716480_a_at) / RFU GAP43 (11754022_s_at) / Fold change /veh GAP43 (11754022_s_at) / RFU A4GNT (11735810_at) / Fold change /veh A4GNT (11735810_at) / RFU PRB3 (11715151_x_at) / Fold change /veh PRB3 (11715151_x_at) / RFU TUBB4B (11761932_at) / Fold change /veh TUBB4B (11761932_at) / RFU CAPN14 (11732068_a_at) / Fold change /veh CAPN14 (11732068_a_at) / RFU TMCC2 (11721928_a_at) / Fold change /veh TMCC2 (11721928_a_at) / RFU IRGQ (11745062_a_at) / Fold change /veh IRGQ (11745062_a_at) / RFU FAM174B (11720279_a_at) / Fold change /veh FAM174B (11720279_a_at) / RFU TMPRSS4 (11748680_a_at) / Fold change /veh TMPRSS4 (11748680_a_at) / RFU FAM212B (11763350_a_at) / Fold change /veh FAM212B (11763350_a_at) / RFU PLEKHG5 (11743358_a_at) / Fold change /veh PLEKHG5 (11743358_a_at) / RFU ZSCAN30 (11745921_a_at) / Fold change /veh ZSCAN30 (11745921_a_at) / RFU CMKLR1 (11741424_a_at) / Fold change /veh CMKLR1 (11741424_a_at) / RFU LOC101060620 /// MAPK8IP1 (11723275_at) / Fold change /veh LOC101060620 /// MAPK8IP1 (11723275_at) / RFU SPTSSB (11747773_x_at) / Fold change /veh SPTSSB (11747773_x_at) / RFU PRSS12 (11739890_at) / Fold change /veh PRSS12 (11739890_at) / RFU BIN1 (11741810_x_at) / Fold change /veh BIN1 (11741810_x_at) / RFU WNT11 (11732464_a_at) / Fold change /veh WNT11 (11732464_a_at) / RFU C10orf10 (11716521_a_at) / Fold change /veh C10orf10 (11716521_a_at) / RFU C5orf56 (11738089_at) / Fold change /veh C5orf56 (11738089_at) / RFU CYB561 (11721691_x_at) / Fold change /veh CYB561 (11721691_x_at) / RFU ANKRD19P (11752326_a_at) / Fold change /veh ANKRD19P (11752326_a_at) / RFU OR2T12 /// OR2T33 /// OR2T8 (11738714_s_at) / Fold change /veh OR2T12 /// OR2T33 /// OR2T8 (11738714_s_at) / RFU VCAN (11748164_a_at) / Fold change /veh VCAN (11748164_a_at) / RFU JSRP1 (11732532_at) / Fold change /veh JSRP1 (11732532_at) / RFU KRTAP10-11 (11738290_x_at) / Fold change /veh KRTAP10-11 (11738290_x_at) / RFU MYO3A (11730013_a_at) / Fold change /veh MYO3A (11730013_a_at) / RFU EBF3 (11725865_a_at) / Fold change /veh EBF3 (11725865_a_at) / RFU CAMK2N1 (11719241_x_at) / Fold change /veh CAMK2N1 (11719241_x_at) / RFU C5orf56 (11738088_a_at) / Fold change /veh C5orf56 (11738088_a_at) / RFU OLFML3 (11715873_a_at) / Fold change /veh OLFML3 (11715873_a_at) / RFU LOC100653217 /// NTM (11731650_a_at) / Fold change /veh LOC100653217 /// NTM (11731650_a_at) / RFU MAPK11 (11762145_a_at) / Fold change /veh MAPK11 (11762145_a_at) / RFU FIZ1 (11724087_x_at) / Fold change /veh FIZ1 (11724087_x_at) / RFU OASL (11726364_x_at) / Fold change /veh OASL (11726364_x_at) / RFU SOX15 (11748057_x_at) / Fold change /veh SOX15 (11748057_x_at) / RFU CD79A (11719716_a_at) / Fold change /veh CD79A (11719716_a_at) / RFU HIST1H1D (11736915_at) / Fold change /veh HIST1H1D (11736915_at) / RFU CASKIN2 (11723855_a_at) / Fold change /veh CASKIN2 (11723855_a_at) / RFU LOC730098 (11760151_x_at) / Fold change /veh LOC730098 (11760151_x_at) / RFU OR4N2 (11742367_at) / Fold change /veh OR4N2 (11742367_at) / RFU PRRT2 (11749266_a_at) / Fold change /veh PRRT2 (11749266_a_at) / RFU SNX32 (11753110_a_at) / Fold change /veh SNX32 (11753110_a_at) / RFU CDHR5 (11726645_a_at) / Fold change /veh CDHR5 (11726645_a_at) / RFU RCAN1 (11760418_a_at) / Fold change /veh RCAN1 (11760418_a_at) / RFU FAM167A (11723789_a_at) / Fold change /veh FAM167A (11723789_a_at) / RFU FAM26E (11764081_at) / Fold change /veh FAM26E (11764081_at) / RFU ISYNA1 (11749810_s_at) / Fold change /veh ISYNA1 (11749810_s_at) / RFU ACY1 (11761880_at) / Fold change /veh ACY1 (11761880_at) / RFU 11764098_at / Fold change /veh 11764098_at / RFU SAMD14 (11745864_x_at) / Fold change /veh SAMD14 (11745864_x_at) / RFU NPB (11741838_a_at) / Fold change /veh NPB (11741838_a_at) / RFU TMPRSS6 (11731388_a_at) / Fold change /veh TMPRSS6 (11731388_a_at) / RFU KRTAP10-2 (11738614_at) / Fold change /veh KRTAP10-2 (11738614_at) / RFU ARHGAP8 /// PRR5-ARHGAP8 (11727945_x_at) / Fold change /veh ARHGAP8 /// PRR5-ARHGAP8 (11727945_x_at) / RFU KRTAP5-7 /// NADSYN1 (11734609_at) / Fold change /veh KRTAP5-7 /// NADSYN1 (11734609_at) / RFU RASL12 (11751679_a_at) / Fold change /veh RASL12 (11751679_a_at) / RFU CDKN2B (11736163_a_at) / Fold change /veh CDKN2B (11736163_a_at) / RFU PRF1 (11729649_at) / Fold change /veh PRF1 (11729649_at) / RFU, ZNF638 /// ZNF638-IT1 / Fold change vs veh, ZNF638 /// ZNF638-IT1 / RFU, PANK3 / Fold change vs veh, PANK3 / RFU, SH3YL1 / Fold change vs veh, SH3YL1 / RFU, ZEB2 / Fold change vs veh, ZEB2 / RFU, NRIP1 / Fold change vs veh, NRIP1 / RFU, PTTG1IP / Fold change vs veh, PTTG1IP / RFU, CAPN2 / Fold change vs veh, CAPN2 / RFU, MED14 / Fold change vs veh, MED14 / RFU, SNORA58 / Fold change vs veh, SNORA58 / RFU, C1orf63 / Fold change vs veh, C1orf63 / RFU, LRRFIP1 / Fold change vs veh, LRRFIP1 / RFU, NDUFAF7 / Fold change vs veh, NDUFAF7 / RFU, SLC12A2 / Fold change vs veh, SLC12A2 / RFU, IBTK / Fold change vs veh, IBTK / RFU, ESF1 / Fold change vs veh, ESF1 / Fold change vs veh, TMEM50B / RFU, TAOK1 / Fold change vs veh, TAOK1 / RFU, ACBD3 / Fold change vs veh, ACBD3 / RFU, TMA16 / Fold change vs veh, TMA16 / RFU, RWDD3 / Fold change vs veh, RWDD3 / RFU, BCAT1 / Fold change vs veh, BCAT1 / RFU, EDEM3 / Fold change vs veh, EDEM3 / RFU, TMEM33 / Fold change vs veh, TMEM33 / RFU, WDR75 / Fold change vs veh, WDR75 / RFU, AHCTF1 / Fold change vs veh, AHCTF1 / RFU, TFRC / Fold change vs veh, TFRC / RFU, ZDHHC17 / Fold change vs veh, ZDHHC17 / RFU, NOM1 / Fold change vs veh, NOM1 / RFU, ARL8B / Fold change vs veh, ARL8B / RFU, ZBTB11 / Fold change vs veh, ZBTB11 / RFU, TAMM41 / Fold change vs veh, TAMM41 / RFU, KIAA1704 /// LOC100996395 / Fold change vs veh, KIAA1704 /// LOC100996395 / RFU, ING1 / Fold change vs veh, ING1 / RFU, TRMT61B / Fold change vs veh, TRMT61B / RFU, FUBP3 / Fold change vs veh, FUBP3 / RFU, TP53 / Fold change vs veh, TP53 / RFU, TNKS2 / Fold change vs veh, TNKS2 / RFU, ZFP14 / Fold change vs veh, ZFP14 / RFU, ACTR2 / Fold change vs veh, ACTR2 / RFU, PPP3R1 / Fold change vs veh, PPP3R1 / RFU, PIK3R1 / Fold change vs veh, PIK3R1 / RFU, HNRNPA1 / Fold change vs veh, HNRNPA1 / RFU, RNF170 / Fold change vs veh, RNF170 / RFU, ZNF28 / Fold change vs veh, ZNF28 / RFU, RNGTT / Fold change vs veh, RNGTT / RFU, OGT / Fold change vs veh, OGT / RFU, BRD1 / Fold change vs veh, BRD1 / RFU, MARS / Fold change vs veh, MARS / RFU, ZNF655 / Fold change vs veh, ZNF655 / RFU, FAHD1 / Fold change vs veh, FAHD1 / RFU, BDP1 / Fold change vs veh, BDP1 / RFU, LRRCC1 / Fold change vs veh, LRRCC1 / RFU, ARID1A / Fold change vs veh, ARID1A / RFU, ZNF146 / Fold change vs veh, ZNF146 / RFU, ZNF330 / Fold change vs veh, ZNF330 / RFU, GPN3 / Fold change vs veh, GPN3 / RFU, C9orf123 / Fold change vs veh, C9orf123 / RFU, N4BP2L2 / Fold change vs veh, N4BP2L2 / RFU, ARFIP1 / Fold change vs veh, ARFIP1 / RFU, FAM179B / Fold change vs veh, FAM179B / RFU, BCL10 / Fold change vs veh, BCL10 / RFU, UHRF1BP1L / Fold change vs veh, UHRF1BP1L / RFU, BET1 / Fold change vs veh, BET1 / RFU, CNOT2 / Fold change vs veh, CNOT2 / RFU, ZNF268 / Fold change vs veh, ZNF268 / Fold change vs veh, ZNF507 / RFU, DGCR2 / Fold change vs veh, DGCR2 / RFU, WDSUB1 / Fold change vs veh, WDSUB1 / Fold change vs veh, HSP90B1 /// MIR3652 / RFU, ADSS / Fold change vs veh, ADSS / RFU, GK / Fold change vs veh, GK / RFU, ZNF148 / Fold change vs veh, ZNF148 / RFU, TAF9 / Fold change vs veh, TAF9 / RFU, SLC1A5 / Fold change vs veh, SLC1A5 / RFU, SLMO2 / Fold change vs veh, SLMO2 / RFU, ABCC4 / Fold change vs veh, ABCC4 / RFU, LOC101060439 /// RAP1B / Fold change vs veh, LOC101060439 /// RAP1B / RFU, RFX7 / Fold change vs veh, RFX7 / RFU, GTPBP10 / Fold change vs veh, GTPBP10 / RFU, CNEP1R1 / Fold change vs veh, CNEP1R1 / RFU, BIVM-ERCC5 /// ERCC5 / Fold change vs veh, BIVM-ERCC5 /// ERCC5 / RFU, ILF3 / Fold change vs veh, ILF3 / RFU 11762660_at / Fold change /veh 11762660_at / RFU VCAN (11757783_s_at) / Fold change /veh VCAN (11757783_s_at) / RFU DDX43 (11728927_at) / Fold change /veh DDX43 (11728927_at) / RFU KRT8 (11758188_x_at) / Fold change /veh KRT8 (11758188_x_at) / RFU NKD1 (11759106_at) / Fold change /veh NKD1 (11759106_at) / RFU SRD5A1 (11742802_a_at) / Fold change /veh SRD5A1 (11742802_a_at) / RFU TPSAB1 /// TPSB2 (11721975_s_at) / Fold change /veh TPSAB1 /// TPSB2 (11721975_s_at) / RFU GSTM3 (11746129_a_at) / Fold change /veh GSTM3 (11746129_a_at) / RFU IL23R (11737362_x_at) / Fold change /veh IL23R (11737362_x_at) / RFU TMEM51 (11727254_a_at) / Fold change /veh TMEM51 (11727254_a_at) / RFU PIWIL2 (11732686_x_at) / Fold change /veh PIWIL2 (11732686_x_at) / RFU ORM1 (11744905_x_at) / Fold change /veh ORM1 (11744905_x_at) / RFU CCDC152 (11743942_at) / Fold change /veh CCDC152 (11743942_at) / RFU ECM1 (11717891_a_at) / Fold change /veh ECM1 (11717891_a_at) / RFU IL23R (11748794_a_at) / Fold change /veh IL23R (11748794_a_at) / RFU TNFAIP8L3 (11732012_x_at) / Fold change /veh TNFAIP8L3 (11732012_x_at) / RFU MBOAT4 (11741988_at) / Fold change /veh MBOAT4 (11741988_at) / RFU 11764193_at / Fold change /veh 11764193_at / RFU TMEM53 (11763286_at) / Fold change /veh TMEM53 (11763286_at) / RFU MAGEB2 (11727129_at) / Fold change /veh MAGEB2 (11727129_at) / RFU TMEM200A (11744735_a_at) / Fold change /veh TMEM200A (11744735_a_at) / RFU CCDC152 (11751479_a_at) / Fold change /veh CCDC152 (11751479_a_at) / RFU FAM211A (11726209_a_at) / Fold change /veh FAM211A (11726209_a_at) / RFU RGS16 (11746705_a_at) / Fold change /veh RGS16 (11746705_a_at) / RFU VCAN (11755009_s_at) / Fold change /veh VCAN (11755009_s_at) / RFU RHOB (11743442_s_at) / Fold change /veh RHOB (11743442_s_at) / RFU RGS16 (11720943_a_at) / Fold change /veh RGS16 (11720943_a_at) / RFU RGS16 (11720944_at) / Fold change /veh RGS16 (11720944_at) / RFU, VPS4B / Fold change vs veh, VPS4B / RFU, CREB1 / Fold change vs veh, CREB1 / RFU, DNAJC13 / Fold change vs veh, DNAJC13 / RFU, GNAQ / Fold change vs veh, GNAQ / RFU, CDK5R1 / Fold change vs veh, CDK5R1 / RFU, ZRANB3 / Fold change vs veh, ZRANB3 / RFU, CUL4A / Fold change vs veh, CUL4A / RFU, CCNY / Fold change vs veh, CCNY / RFU, UFL1 / Fold change vs veh, UFL1 / RFU, COG3 / Fold change vs veh, COG3 / RFU, DIAPH2 / Fold change vs veh, DIAPH2 / RFU, SKA2 / Fold change vs veh, SKA2 / RFU, AFF3 / Fold change vs veh, AFF3 / RFU, LMF1 / Fold change vs veh, LMF1 / RFU, IPO11 / Fold change vs veh, IPO11 / RFU, DFFB / Fold change vs veh, DFFB / RFU, FOXP1 / Fold change vs veh, FOXP1 / RFU, CARD8 / Fold change vs veh, CARD8 / RFU, STRN3 / Fold change vs veh, STRN3 / RFU, ADK / Fold change vs veh, ADK / RFU, RASSF2 / Fold change vs veh, RASSF2 / RFU, WIPF1 / Fold change vs veh, WIPF1 / RFU, LARP1B / Fold change vs veh, LARP1B / RFU, RASA1 / Fold change vs veh, RASA1 / RFU, RB1 / Fold change vs veh, RB1 / RFU, PPFIA1 / Fold change vs veh, PPFIA1 / RFU, MAT2A / Fold change vs veh, MAT2A / RFU, CCT5 / Fold change vs veh, CCT5 / RFU, WDR92 / Fold change vs veh, WDR92 / RFU, CUX1 / Fold change vs veh, CUX1 / RFU, TTC7A / Fold change vs veh, TTC7A / RFU, TMEM135 / Fold change vs veh, TMEM135 / RFU, DEPTOR / Fold change vs veh, DEPTOR / RFU, CPM / Fold change vs veh, CPM / RFU, DNAJB6 / Fold change vs veh, DNAJB6 / RFU, CACNA2D3 / Fold change vs veh, CACNA2D3 / RFU, DTX4 / Fold change vs veh, DTX4 / RFU, TFCP2 / Fold change vs veh, TFCP2 / RFU, GMCL1 /// GMCL1P1 / Fold change vs veh, GMCL1 /// GMCL1P1 / RFU, AEBP2 / Fold change vs veh, AEBP2 / RFU, SNHG1 /// SNORD22 /// SNORD25 /// SNORD26 /// SNORD27 /// SNORD28 /// SNORD29 /// SNORD31 / Fold change vs veh, SNHG1 /// SNORD22 /// SNORD25 /// SNORD26 /// SNORD27 /// SNORD28 /// SNORD29 /// SNORD31 / Fold change (Aza/veh), C12orf56 (ProbeSet 11735607_a_at) / Fold change (ACY-1035/veh), C12orf56 (ProbeSet 11735607_a_at) / Fold change (Aza/veh), FGFR1OP (ProbeSet 11751329_s_at) / Fold change (ACY-1035/veh), FGFR1OP (ProbeSet 11751329_s_at) / Fold change (Aza/veh), VPS36 (ProbeSet 11739960_a_at) / Fold change (ACY-1035/veh), VPS36 (ProbeSet 11739960_a_at) / RFU SYPL1 (11715823_x_at) / Fold change /veh SYPL1 (11715823_x_at) / RFU IGFBP7 (11715501_s_at) / Fold change /veh IGFBP7 (11715501_s_at) / RFU REEP3 (11722064_at) / Fold change /veh REEP3 (11722064_at) / RFU IGLL1 (11728026_x_at) / Fold change /veh IGLL1 (11728026_x_at): dose or concentration left out as unconfirmed",
  "details": "MV-4-11 cells, 48 hours",
  "data": [
    {"smiles": "Nc1ccc(-c2cccs2)cc1NC(=O)c1ccc2c(c1)cc(C1CC1)n2CCN1CCOCC1", "note": "[ACY-1035]", "values": [
      {"measurement": "Fold change /veh SPINT1 (11716480_a_at)", "value": 1.05}
    ]}
  ]
}
